Experiments:
Trypanosoma cruzi [1] = experiment: GSK_TCAKS: pIC50 Trypanosoma cruzi viability assay using beta-GAL activity. This assay was run at single shot at 5uM compound concentration per well. The biological reagents consisted of NIH-3T3 host cells and trypomastigotes parasitic cells; both cell types were set to a 3.3 * 10^5 cells/mL dilution in assay DMEM by means of a CASY cell counter device using a 60um capillary. 6 uL of the mixture were dispensed per well (about 1 * 10^3 host-cells and 1 * 10^3 parasites) with a Multidrop Combi dispenser. […] In all wells, the percentage of DMSO never exceeded 0.5%. Plates incubated for four days at 37C, 5% CO2. The substrate used for the assay fluorescence intensity (FLINT) readout was resorufin-beta-D-galactopiranoside (Sigma-Aldrich) at 5uM per well. It was diluted in PBS supplemented with the soft detergent Igepal (Fluka).; type: functional, organism-based, Mus musculus; settings: Tulahuen, NIH3T3
Trypanosoma cruzi [2] = experiment: (§1) GSK_TCAKS: pIC50 Trypanosoma cruzi Imaging: Infected Cells. […] Cells were then washed once with PBS before infection. T. cruzi trypomastigotes, collected at days 5 to 8 after infection from LLC-MK2 parasite infected cultures, were allowed to swim out for 4h at 37C from a centrifuged pellet (2,500 rpm/10 min/room temperature). Trypomastigotes were then collected and counted in a CASY Cell Counter. Trypomastigotes, in supplemented DMEM, were added to H9c2 cultures in a multiplicity of infection of 1 and incubated for 18 h. Cells were washed once with PBS before incubation of the infected H9c2 monolayer with trypsin (Life-Technologies) to detach cells from the flask. Cells were counted in a CASY Cell Counter using a 150 um capillary and their density set at 5 * 10^4 cells per mL in supplemented assay DMEM. Infected H9c2 were dispensed into 384-well poly-lysine coated assay plates at 50uL per well using a Multidrop Combi dispenser. After seeding them, the plates were incubated at 37C, 5% CO2 for 72h. Cultures were then fixed and stained by addition of 50 uL of a solution containing 8% formaldehyde and 4 uM DRAQ5 DNA dye (BioStatus, UK) per well. […] Five images were collected per well for reliable statistical analysis. Automated image analysis was performed with a script developed on Acapella High Content Imaging and Analysis Software (PerkinElmer). Output: percentage of infected cells per well as a second infection marker.; type: functional, organism-based, Rattus norvegicus; settings: H9c2, 4 h
Trypanosoma cruzi [3] = experiment: GSK_TCAKS: pIC50 Trypanosoma cruzi Imaging: Amastigotes/Cell. […] Cells were then washed once with PBS before infection. T. cruzi trypomastigotes, collected at days 5 to 8 after infection from LLC-MK2 parasite infected cultures, were allowed to swim out for 4h at 37C from a centrifuged pellet (2,500 rpm/10 min/room temperature). Trypomastigotes were then collected and counted in a CASY Cell Counter. Trypomastigotes, in supplemented DMEM, were added to H9c2 cultures in a multiplicity of infection of 1 and incubated for 18 h. Cells were washed once with PBS before incubation of the infected H9c2 monolayer with trypsin (Life-Technologies) to detach cells from the flask. Cells were counted in a CASY Cell Counter using a 150 um capillary and their density set at 5 * 10^4 cells per mL in supplemented assay DMEM. Infected H9c2 were dispensed into 384-well poly-lysine coated assay plates at 50uL per well using a Multidrop Combi dispenser. After seeding them, the plates were incubated at 37C, 5% CO2 for 72h. Cultures were then fixed and stained by addition of 50 uL of a solution containing 8% formaldehyde and 4 uM DRAQ5 DNA dye (BioStatus, UK) per well. […] Five images were collected per well for reliable statistical analysis. Automated image analysis was performed with a script developed on Acapella High Content Imaging and Analysis Software (PerkinElmer). Output: number of amastigotes per cell as infection level measurement.; type: functional, organism-based, Rattus norvegicus; settings: H9c2, 4 h
Trypanosoma cruzi [4] = experiment: as §1, with “H2C9” for “Trypanosoma cruzi”, “H9c2 Host Cardiomyocytes.” for “Infected Cells.”, “Number” for “percentage”, “H9c2 Host Cardiomyocytes nuclei to determine drug-related cytotoxicity.” for “infected cells per well as a second infection marker.”; type: functional, organism-based, Rattus norvegicus; settings: H9c2, 4 h
Leishmania donovani [5] = experiment: GSK_TCAKS: pIC50 Leishmania donovani viability assay using fluorescence intensity. Assay plates (1536-well) were prepared by adding 30nL per well of compound. For single shot assay, the final compound concentration was 5uM. […] Briefly, eGFP LdBOB axenic amastigotes were harvested, fixed and counted in a CASY cell counter (Roche-Applied Science). A final concentration of 1.5 * 10^5 cells per well were prepared in amastigote media containing 500 U/mL penicillin/streptomycin (Invitrogen) and 6uL was dispensed to each experimental well using a Multidrop Combi dispenser (Thermo Scientific). 6uL of assay media was dispensed to control columns used as reference for 100% compound response. Following incubation for 72 h at 37C, 5% CO2, 2 uL of resazurin was added to each well at a final concentration of 0.5 mM in phosphate buffered saline (PBS) with IGEPAL (Sigma-Aldrich), 0.05% (v/v).; type: functional, organism-based
Leishmania donovani [6] = experiment: (§2) GSK_TCAKS: pIC50 Leishmania donovani Imaging: Infected Macrophages. Assay plates (384-well) were prepared by adding 250nL of compound to each well. For single shot assay, the final compound concentration was 5 uM. […] Automated image analysis was performed with a script developed on Acapella High Content Imaging and Analysis Software (PerkinElmer). Output: Percent of infected macrophage cells were reported for each well.; type: functional, organism-based, Homo sapiens; settings: THP-1
Leishmania donovani [7] = experiment: as §2, with “Amastigotes/Macrophages.” for “Infected Macrophages.”, “Average number” for “Percent”, “amastigotes per” for “infected”, “cell” for “cells”; type: functional, organism-based, Homo sapiens; settings: THP-1
Leishmania donovani [8] = experiment: as §2, with “THP-1 Host” for “Infected”, “THP-1 cell count” for “Percent of infected macrophage cells”; type: functional, organism-based, Homo sapiens
[9] = test system: Trypanosoma brucei brucei; experiment: GSK_TCAKS: pIC50 Trypanosoma brucei viability assay using fluorescence intensity. Assay plates (1536-well) were prepared by dispensing 25nL of compound solution per well using an Echo acoustic dispenser (Labcyte).; type: functional, organism-based; settings: Lister 427, 2 h
[10] = test system: Trypanosoma brucei brucei; experiment: GSK_TCAKS: pIC50 Trypanosoma brucei viability assay using luminiscence. Assay plates (1536-well) were prepared. T. brucei cultures were harvested and counted in a CASY cell counter. A parasite suspension was prepared at a final concentration of 5 * 10^4 cells/mL in complete HMI9 medium and 6uL was dispensed to all wells containing compounds using a Multidrop Combi dispenser. 6uL of HMI9 media with 0.4% DMSO were dispensed to control columns. Plates were incubated for 24 h at 37C, 5% CO2 then tempered for 10 min at room temperature. ATP content was quantified by adding 4 uL of CellTiter-Glo Reagent (Promega) according to the manufacturer's instructions. Luminescence was measured using a ViewLux.; type: functional, organism-based; settings: Lister 427, CASY
[11] = GSK_TCAKS: pIC50 HepG2 human cell line viability assay using luminiscence. […] Seeding density was checked to ensure that new mono-layers were not more than 50% confluent at the time of harvesting. Cell suspension was added to 500 mL of the same medium at a final density of 1.2 * 10^5 cells/mL. This cell suspension was dispensed (25 uL, 3000 cells per well) into 384-well clear-bottom plates using a Multidrop Combi dispenser. Prior to addition of the cell suspension, the screening compounds (250 nL) were pre-dispensed into the plates with an Echo liquid handler. Plates were incubated for 48 h at 37C, 5% CO2. After incubation, plates equilibrated at room temperature for 30 min before proceeding to develop the luminescent signal. The signal developer, CellTiter-Glo Reagent, was allowed to equilibrate at room temperature for 30 min and added to the plates (25uL per well) using a Multidrop Combi dispenser. Plates were left for 10 min at room temperature for stabilization and then read using a ViewLux.; type: toxicity, cell-based
[12] = target: Sterol 14-alpha demethylase (Trypanosoma cruzi (strain CL Brener), UniProt Q7Z1V1); experiment: GSK_TCAKS: pIC50 CYP51 from Trypanosoma cruzi.; type: functional
Sequence of Sterol 14-alpha demethylase (Q7Z1V1 whole entry): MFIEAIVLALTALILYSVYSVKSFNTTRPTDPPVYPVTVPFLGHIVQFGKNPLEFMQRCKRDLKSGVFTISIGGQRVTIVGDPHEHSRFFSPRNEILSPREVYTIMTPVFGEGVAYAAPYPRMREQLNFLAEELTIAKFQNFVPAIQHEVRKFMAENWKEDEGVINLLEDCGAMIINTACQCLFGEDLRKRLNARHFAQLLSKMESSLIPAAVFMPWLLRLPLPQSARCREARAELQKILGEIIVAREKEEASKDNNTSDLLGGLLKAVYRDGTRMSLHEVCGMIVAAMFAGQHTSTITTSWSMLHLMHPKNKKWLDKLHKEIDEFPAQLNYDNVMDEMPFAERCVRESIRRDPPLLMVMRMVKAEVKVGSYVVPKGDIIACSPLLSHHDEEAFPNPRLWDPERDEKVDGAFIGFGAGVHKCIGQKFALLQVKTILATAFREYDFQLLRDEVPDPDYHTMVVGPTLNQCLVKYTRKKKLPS

Cc1ccccc1CNC(=O)CN(Cc1ccccn1)Cc1ccccn1
IC50 (Trypanosoma cruzi [1]): 5.01 µM | IC50 (Trypanosoma cruzi [2]): 15.8 µM | IC50 (Trypanosoma cruzi [3]): 6.31 µM | IC50 (Trypanosoma cruzi [4]): > 79.4 µM | IC50 (Leishmania donovani [5]): 10 µM | IC50 (Leishmania donovani [6]): 6.31 µM | IC50 (Leishmania donovani [7]): 3.98 µM | IC50 (Leishmania donovani [8]): > 79.4 µM | IC50 [9]: 6.31 µM | IC50 [10]: 20 µM | IC50 at 48 h [11]: > 158 µM | IC50 [12]: 100 µM

O=C(CN(Cc1ccccn1)Cc1ccccn1)NC1Cc2ccccc2C1
IC50 (Trypanosoma cruzi [1]): 5.01 µM | IC50 (Trypanosoma cruzi [2]): 12.6 µM | IC50 (Trypanosoma cruzi [3]): 6.31 µM | IC50 (Trypanosoma cruzi [4]): > 79.4 µM | IC50 (Leishmania donovani [5]): 12.6 µM | IC50 (Leishmania donovani [6]): 5.01 µM | IC50 (Leishmania donovani [7]): 5.01 µM | IC50 (Leishmania donovani [8]): > 79.4 µM | IC50 [9]: 20 µM | IC50 [10]: 12.6 µM | IC50 at 48 h [11]: > 158 µM | IC50 [12]: 79.4 µM

CC(CCc1ccccc1)NC(=O)CN(Cc1ccccn1)Cc1ccccn1 (stereo not given)
IC50 (Trypanosoma cruzi [1]): 2.51 µM | IC50 (Trypanosoma cruzi [2]): 10 µM | IC50 (Trypanosoma cruzi [3]): 3.16 µM | IC50 (Trypanosoma cruzi [4]): > 79.4 µM | IC50 (Leishmania donovani [5]): 7.94 µM | IC50 (Leishmania donovani [6]): 3.16 µM | IC50 (Leishmania donovani [7]): 3.16 µM | IC50 (Leishmania donovani [8]): 20 µM | IC50 [9]: 10 µM | IC50 [10]: 5.01 µM | IC50 at 48 h [11]: > 158 µM | IC50 [12]: 63.1 µM

O=C(CN(Cc1ccccn1)Cc1ccccn1)NCc1ccc2c(c1)OCO2
IC50 (Trypanosoma cruzi [1]): 7.94 µM | IC50 (Trypanosoma cruzi [2]): 12.6 µM | IC50 (Trypanosoma cruzi [3]): 6.31 µM | IC50 (Trypanosoma cruzi [4]): > 79.4 µM | IC50 (Leishmania donovani [5]): 12.6 µM | IC50 (Leishmania donovani [6]): 7.94 µM | IC50 (Leishmania donovani [7]): 6.31 µM | IC50 (Leishmania donovani [8]): > 79.4 µM | IC50 [9]: 6.31 µM | IC50 [10]: 20 µM | IC50 at 48 h [11]: > 158 µM | IC50 [12]: 100 µM

O=C(CN(Cc1ccccn1)Cc1ccccn1)NCc1csc(-c2cccs2)n1
IC50 (Trypanosoma cruzi [1]): 3.98 µM | IC50 (Trypanosoma cruzi [2]): 6.31 µM | IC50 (Trypanosoma cruzi [3]): 2.51 µM | IC50 (Trypanosoma cruzi [4]): > 50.1 µM | IC50 (Leishmania donovani [5]): 12.6 µM | IC50 (Leishmania donovani [6]): 6.31 µM | IC50 (Leishmania donovani [7]): 3.16 µM | IC50 (Leishmania donovani [8]): > 50.1 µM | IC50 [9]: 20 µM | IC50 [10]: 15.8 µM | IC50 at 48 h [11]: > 100 µM | IC50 [12]: 39.8 µM

— ChEMBL document CHEMBL3430912, “GSK Tres Cantos Anti-Kinetoplastid Screening (TCAKS) Data”
